Data taken from publication PMC10762035, “Molecular basis of human trace amine-associated receptor 1 activation” (Nature Communications, 2024).
Residue numbers refer to the chain shown, from its start. Where “and” joins values, the source holds several entries; their conditions need not be identical. Equal values may be shown once.

Columns and labels:
Format in all cases: cell-based
hTA1 I290Y = molecular target: T1, hTA1 I290Y (Homo sapiens, UniProt Q96RJ0, I290Y); assay: GloSensor cAMP accumulation assay, I290Y mutant; details: for cAMP accumulation response, normalized (concentration-response source data, single replicate values): hTA1 I290Y (N=3), log[Compound];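 for cAMP accumulation response, normalized (concentration-response source data, single replicate values): normalized to the maximum response of β-PEA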
T1 construct: expressed in transfected cells; host or cells: HEK293T
T1 sequence (Q96RJ0 1-339 I290Y): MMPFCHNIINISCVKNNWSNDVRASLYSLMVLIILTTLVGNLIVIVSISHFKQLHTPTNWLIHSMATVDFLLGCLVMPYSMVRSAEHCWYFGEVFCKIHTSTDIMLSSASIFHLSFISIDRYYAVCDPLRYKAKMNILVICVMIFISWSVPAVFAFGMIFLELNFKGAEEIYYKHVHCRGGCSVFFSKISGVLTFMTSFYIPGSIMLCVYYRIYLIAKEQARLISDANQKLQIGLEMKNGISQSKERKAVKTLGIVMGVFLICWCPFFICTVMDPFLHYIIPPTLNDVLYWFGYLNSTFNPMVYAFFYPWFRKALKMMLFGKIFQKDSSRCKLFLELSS

hTA1 C88S = molecular target: T2, hTA1 C88S (Homo sapiens, UniProt Q96RJ0, C88S); assay: GloSensor cAMP accumulation assay, C88S mutant; details: C88S
T2 construct: expressed in transfected cells; host or cells: HEK293T
T2 sequence (Q96RJ0 1-339 C88S): T1 sequence (Q96RJ0 1-339 I290Y) with C88S, Y290I

hTA1 b2N = molecular target: T3, hTA1 b2N (Homo sapiens, UniProt Q96RJ0); assay: GloSensor cAMP accumulation assay, b2N construct; details: b2N, n=2
T3 construct: read by me as the first 25 residues of β2AR (N); expressed in transfected cells; host or cells: HEK293T

hTA1 V184P = molecular target: T4, hTA1 V184P (Homo sapiens, UniProt Q96RJ0, V184P); assay: GloSensor cAMP accumulation assay, V184P mutant; details: for cAMP accumulation response, single replicate values (source data, Supplementary Figure 5): hTA1 V184P (N=2), log[Compound]
T4 construct: expressed in transfected cells; host or cells: HEK293T
T4 sequence (Q96RJ0 1-339 V184P): T1 sequence (Q96RJ0 1-339 I290Y) with V184P, Y290I

hTA1 C13S = molecular target: T5, hTA1 C13S (Homo sapiens, UniProt Q96RJ0, C13S); assay: GloSensor cAMP accumulation assay, C13S mutant; details: for C13S - Normalized Luminescence Counts (N=2): log[Compound], single wells
T5 construct: expressed in transfected cells; host or cells: HEK293T
T5 sequence (Q96RJ0 1-339 C13S): T1 sequence (Q96RJ0 1-339 I290Y) with C13S, Y290I

hTA1 F195T = molecular target: T6, hTA1 F195T (Homo sapiens, UniProt Q96RJ0, F195T); assay: GloSensor cAMP accumulation assay, F195T mutant;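 note: cells transiently co-expressing HA-FLAG-tagged hTA1 and the GloSensor cAMP biosensor, luminescence read 30 min after agonist addition at room temperature, concentration-response fitted by nonlinear regression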
T6 construct: expressed in transfected cells; host or cells: HEK293T
T6 sequence (Q96RJ0 1-339 F195T): T1 sequence (Q96RJ0 1-339 I290Y) with F195T, Y290I

T3 sequence (Q96RJ0 with tags, fused parts or gaps): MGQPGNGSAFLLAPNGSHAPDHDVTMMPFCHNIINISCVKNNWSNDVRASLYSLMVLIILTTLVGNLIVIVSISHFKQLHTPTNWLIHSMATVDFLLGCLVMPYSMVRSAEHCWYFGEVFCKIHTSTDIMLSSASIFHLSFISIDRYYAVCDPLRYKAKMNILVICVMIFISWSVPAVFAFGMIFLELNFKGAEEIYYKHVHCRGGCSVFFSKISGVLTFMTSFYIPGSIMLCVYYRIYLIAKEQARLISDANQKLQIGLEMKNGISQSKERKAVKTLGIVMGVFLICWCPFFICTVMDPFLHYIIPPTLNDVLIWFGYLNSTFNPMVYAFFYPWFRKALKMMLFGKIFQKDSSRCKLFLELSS

With `Cc1c(F)cccc1[C@H]1COC(N)=N1` [Ro5263397] the “Span ± SEM (Emax normalized to β-PEA)” value (hTA1 I290Y; I290Y) was 61.58 ± 3.99, the “pEC50 ± SEM” value (hTA1 I290Y; I290Y) was 9.16 ± 0.18 and the EC50 (hTA1 I290Y; I290Y, read-out: EC50) was 0.69 nM and 0.7 nM. For the same compound, the “Emax values, Mean” value (hTA1 I290Y; I290Y, single experiments (3 replicates each), β-PEA = 100) was 59.7265 and 69.2263 and 55.7889, the “cAMP accumulation response, normalized (concentration-response source data, single replicate values)” value (shortened to “cAMP accumulation response, normalized”) (hTA1 I290Y; M = -5) was 77.8381 and 104.308 and 85.2251 and 91.2333 and 75.1101 and 85.0039 and 68.1063 and 86.1539 and 148.193 and the “cAMP accumulation response, normalized” value (hTA1 I290Y; M = -5.522) was 49.5212 and 78.7614 and 62.4485 and 78.7745 and 74.7437 and 50.1924 and 55.6986 and 43.2908 and 39.9069. For the same compound, the “cAMP accumulation response, normalized” value (hTA1 I290Y; M = -6) was 40.5953 and 87.0718 and 61.2173 and 64.117 and 63.3841 and 61.5519 and 45.5468 (2×) and 50.0587, the “cAMP accumulation response, normalized” value (hTA1 I290Y; M = -6.522) was 56.6004 and 53.5225 and 48.9057 and 84.6375 and 52.7574 and 75.4765 and 66.9783 and 45.5468 and 38.7789 and the “cAMP accumulation response, normalized” value (hTA1 I290Y; M = -7) was 35.3628 and 69.2199 and 41.5187 and 56.0554 and 64.117 and 50.9252 and 46.6748 and 39.9069 and 45.5468. For the same compound, the “cAMP accumulation response, normalized” value (hTA1 I290Y; M = -7.522) was 46.4433 and 76.2991 and 50.1368 and 60.819 and 63.0177 and 60.4526 and 39.9069 and 45.5468 and 47.8027, the “cAMP accumulation response, normalized” value (hTA1 I290Y; M = -8) was 61.8329 and 86.4562 and 67.9887 and 68.1478 and 70.3464 and 73.6443 and 36.523 and 37.651 and 32.0111 and the “cAMP accumulation response, normalized” value (hTA1 I290Y; M = -8.522) was 54.7537 and 78.4536 and 76.2991 and 69.98 and 71.4457 and 63.7505 and 30.8831 and 33.1391 (2×). For the same compound, the “cAMP accumulation response, normalized” value (hTA1 I290Y; M = -9) was 45.2122 and 78.7614 and 61.8329 and 45.0622 and 50.1924 and 56.0554 and 15.0915 and 19.6034 and 12.8355, the “cAMP accumulation response, normalized” value (hTA1 I290Y; M = -9.522) was 19.3577 and 32.5927 and 26.1291 and 49.4595 and 39.5657 and 25.2746 and 3.812 (2×) and 8.324 and the “cAMP accumulation response, normalized” value (hTA1 I290Y; M = -10) was 27.9758 and 29.5148 and 27.3602 and 7.319 and 9.884 and 17.5794 and 0.4278 and 2.684 and 7.196. For the same compound, the “cAMP accumulation response, normalized” value (hTA1 I290Y; M = -10.522) was 6.738, the Emax values (hTA1 C88S; Mean of fit per experiment) was 109.361 and 91.1412 and the “Span ± SEM (Emax normalized to β-PEA)” value (hTA1 C88S; n=2) was 100.25 ± 9.11. The “pEC50 ± SEM” value (hTA1 C88S; n=2) was 8.78 ± 0.06, the EC50 (hTA1 C88S; n=2, read-out: EC50) was 1.64 nM and the Emax (hTA1 C88S; relative to β-PEA) was 100.3%. For the same compound, the “Span ± SEM (Emax normalized to β-PEA)” value (hTA1 b2N) was 78.31 ± 9.88, the “pEC50 ± SEM” value (hTA1 b2N) was 9.18 ± 0.09 and the EC50 (hTA1 b2N; read-out: EC50) was 0.66 nM. For the same compound, the “Span ± SEM (Emax normalized to β-PEA)” value (hTA1 V184P; V184P, n=2) was 67.49 ± 4.18, the “pEC50 ± SEM” value (hTA1 V184P; V184P, n=2) was 8.72 ± 0.1 and the EC50 (hTA1 V184P; V184P, n=2, read-out: EC50) was 1.89 nM. For the same compound, the “cAMP accumulation response, single replicate values (source data, Supplementary Figure 5)” value (hTA1 V184P; M = -5) was 75.9826 and 54.4514 and 68.5146 and 68.2232 and 103.41 and 63.2018, the “cAMP accumulation response, single replicate values (source data, Supplementary Figure 5)” value (hTA1 V184P; M = -5.522) was 60.8526 and 56.6821 and 51.6388 and 54.9916 and 88.8585 and 75.7736 and the “cAMP accumulation response, single replicate values (source data, Supplementary Figure 5)” value (hTA1 V184P; M = -6) was 62.1134 and 62.7923 and 57.749 and 52.2793 and 90.2146 and 61.0026. For the same compound, the “cAMP accumulation response, single replicate values (source data, Supplementary Figure 5)” value (hTA1 V184P; M = -6.522) was 55.2273 and 58.8159 and 63.0833 and 59.17 and 90.5079 and 61.9556, the “cAMP accumulation response, single replicate values (source data, Supplementary Figure 5)” value (hTA1 V184P; M = -7) was 76.2736 and 57.458 and 63.8592 and 78.4492 and 93.4034 and 75.9935 and the “cAMP accumulation response, single replicate values (source data, Supplementary Figure 5)” value (hTA1 V184P; M = -7.522) was 63.0833 and 60.2707 and 53.2876 and 78.6325 and 73.831 and 68.1499. For the same compound, the “cAMP accumulation response, single replicate values (source data, Supplementary Figure 5)” value (hTA1 V184P; M = -8) was 45.7226 and 42.0371 and 33.6962 and 79.732 and 85.8896 and 81.3081, the “cAMP accumulation response, single replicate values (source data, Supplementary Figure 5)” value (hTA1 V184P; M = -8.522) was 24.6764 and 22.5426 and 25.9372 and 54.0753 and 61.6257 and 60.123 and the “cAMP accumulation response, single replicate values (source data, Supplementary Figure 5)” value (hTA1 V184P; M = -9) was 15.8505 and 15.9475 and 14.9776 and 42.9696 and 48.944 and 40.6972. For the same compound, the “cAMP accumulation response, single replicate values (source data, Supplementary Figure 5)” value (hTA1 V184P; M = -9.522) was 5.57 and 4.794 and 3.436 and 18.8157 and 20.0985 and 19.2188, the “cAMP accumulation response, single replicate values (source data, Supplementary Figure 5)” value (hTA1 V184P; M = -10) was -0.05538 and 0.9145 and 0.6235 and 8.626 and 10.7888 and 9.213 and the “cAMP accumulation response, single replicate values (source data, Supplementary Figure 5)” value (hTA1 V184P; M = -10.522) was -0.8313 and -0.6373 and -1.025 and 2.3587 and 2.835 and 2.469. The “cAMP accumulation response, single replicate values (source data, Supplementary Figure 5)” value (hTA1 V184P; M = -11) was -0.6373 and -0.7343 and -1.316 and 1.442 and 2.102 and 1.039, the “cAMP accumulation response, single replicate values (source data, Supplementary Figure 5)” value (hTA1 V184P; M = -11.522) was -1.025 and -1.607 and -1.51 and 0.1962 and 0.9659 and -0.5735 and the “cAMP accumulation response, single replicate values (source data, Supplementary Figure 5)” value (hTA1 V184P; M = -12) was -0.9283 and -1.122 and -1.4132 and 19.5854 and 20.7216 (2×). For the same compound, the “cAMP accumulation response, single replicate values (source data, Supplementary Figure 5)” value (hTA1 V184P; M = -12.522) was -1.316 and -1.219 and -0.9283 and 4.704 and 5.621 and 6.281, the “pEC50 values, Mean” value (hTA1 V184P; hTA1 V184P mutant, Figure 3B source data, each grid row a separate experiment, 3 replicates) was 8.393 and 9.05 and the “Emax values, Mean” value (hTA1 V184P; hTA1 V184P mutant, β-PEA set to 100, each grid row a separate experiment, 3 replicates) was 63.3156 and 71.6719. For the same compound, the Emax values (hTA1 C13S; C13S, Mean of fit per experiment) was 73.5469 and 88.9072, the “Span ± SEM (Emax normalized to β-PEA)” value (hTA1 C13S; C13S, n=2) was 81.23 ± 7.68 and the “pEC50 ± SEM” value (hTA1 C13S; C13S, n=2) was 8.6 ± 0.08. For the same compound, the EC50 (hTA1 C13S; C13S, n=2, read-out: EC50) was 2.48 nM, the “pEC50 values, Mean” value (hTA1 C13S; hTA1 C13S, mean of 3 replicates, one line per independent experiment) was 8.7547 and 8.4539 and the “C13S - Normalized Luminescence Counts (N=2)” value (hTA1 C13S; M = -5) was 76.1278 and 93.1423 and 84.8444 and 95.4829 and 105.462 and 103.819. For the same compound, the “C13S - Normalized Luminescence Counts (N=2)” value (hTA1 C13S; M = -5.522) was 68.8196 and 89.374 and 78.4497 and 85.6471 and 106.265 and 88.9317, the “C13S - Normalized Luminescence Counts (N=2)” value (hTA1 C13S; M = -6) was 64.1759 and 93.599 and 66.6881 and 75.8649 and 92.3769 and 86.7896 and the “C13S - Normalized Luminescence Counts (N=2)” value (hTA1 C13S; M = -6.522) was 56.487 and 80.4671 and 60.7882 and 74.8831 and 89.3601 and 80.042. The “pEC50 values, Mean” value (hTA1 F195T; F195T mutant, Figure 5B, each row one independent experiment (3 replicates)) was 8.682 and 8.281, the “Emax values, Mean” value (hTA1 F195T; F195T mutant, Figure 5B, β-PEA = 100, each row one independent experiment (3 replicates)) was 106.681 and 96.1093 and the “Span ± SEM (Emax normalized to β-PEA)” value (hTA1 F195T; F195T, n=2) was 101.40 ± 5.29. For the same compound, the “pEC50 ± SEM” value (hTA1 F195T; F195T, n=2) was 7.68 ± 0.60 and the EC50 (hTA1 F195T; F195T, n=2, read-out: EC50) was 20.9 nM.
